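Compound exposure: 48 hours, 5 concentrations, 96-well plates. GI50 is the concentration that inhibits growth by half. TGI: total growth inhibition.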
Legend:
Assay in all cases: NCI tumour cell line growth inhibition, 48 h
MDA-MB-435 = system: MDA-MB-435
KM12 colon = system: KM12 colon
SN12C renal = system: SN12C renal
MALME-3M melanoma = system: MALME-3M melanoma
U251 CNS = system: U251 CNS
EKVX NSCLC = system: EKVX NSCLC
BT-549 breast = system: BT-549 breast
UACC-62 melanoma = system: UACC-62 melanoma
SNB-19 CNS = system: SNB-19 CNS
MOLT-4 leukemia = system: MOLT-4 leukemia
DU-145 prostate = system: DU-145 prostate
NCI-H460 lung = system: NCI-H460 lung
A498 renal = system: A498 renal
T-47D breast = system: T-47D breast
A549 NSCLC = system: A549 NSCLC
SK-MEL-28 melanoma = system: SK-MEL-28 melanoma
ACHN renal = system: ACHN renal
SW-620 colon = system: SW-620 colon
HS 578T breast = system: HS 578T breast
PC-3 prostate = system: PC-3 prostate
HOP-92 NSCLC = system: HOP-92 NSCLC
UACC-257 melanoma = system: UACC-257 melanoma
NCI-H23 lung = system: NCI-H23 lung
HCT-116 colon = system: HCT-116 colon
M14 melanoma = system: M14 melanoma
HT29 colon = system: HT29 colon
SK-MEL-2 melanoma = system: SK-MEL-2 melanoma
LOX IMVI melanoma = system: LOX IMVI melanoma
786-0 renal = system: 786-0 renal
HCT-15 colon = system: HCT-15 colon
COLO 205 colon = system: COLO 205 colon
UO-31 renal = system: UO-31 renal
OVCAR-4 ovarian = system: OVCAR-4 ovarian
SF-268 CNS = system: SF-268 CNS
OVCAR-3 ovarian = system: OVCAR-3 ovarian
MDA-MB-231 breast = system: MDA-MB-231 breast
HOP-62 NSCLC = system: HOP-62 NSCLC
RXF 393 renal = system: RXF 393 renal
TK-10 renal = system: TK-10 renal
IGROV1 ovarian = system: IGROV1 ovarian
SK-OV-3 ovarian = system: SK-OV-3 ovarian
SK-MEL-5 melanoma = system: SK-MEL-5 melanoma
CCRF-CEM leukemia = system: CCRF-CEM leukemia
OVCAR-8 ovarian = system: OVCAR-8 ovarian
SF-539 CNS = system: SF-539 CNS
MDA-MB-468 breast = system: MDA-MB-468 breast
CAKI-1 renal = system: CAKI-1 renal
K-562 leukemia = system: K-562 leukemia
HL-60(TB) leukemia = system: HL-60(TB) leukemia
SF-295 CNS = system: SF-295 CNS
NCI-H226 lung = system: NCI-H226 lung
MCF7 breast = system: MCF7 breast
OVCAR-5 ovarian = system: OVCAR-5 ovarian
SR leukemia = system: SR leukemia
NCI-H522 lung = system: NCI-H522 lung
HCC-2998 colon = system: HCC-2998 colon

## CN(C)c1nc(NCCNS(=O)(=O)c2ccc(C(=O)/C=C/c3ccc(Cl)cc3)cc2)nc(N2CCOCC2)n1
MDA-MB-435
  GI50: 12.8 µM
  TGI: 26.6 µM
KM12 colon
  GI50: 16.9 µM
  TGI: 41.4 µM
SN12C renal
  GI50: 14.4 µM
  TGI: 27.8 µM
MALME-3M melanoma
  GI50: 15.1 µM
  TGI: 28.6 µM
U251 CNS
  GI50: 8.17 µM
  TGI: 20.7 µM
EKVX NSCLC
  GI50: 14.8 µM
  TGI: 28.7 µM
BT-549 breast
  GI50: 15.3 µM
  TGI: 29.3 µM
UACC-62 melanoma
  GI50: 11.4 µM
  TGI: 23.7 µM
SNB-19 CNS
  GI50: 14.2 µM
  TGI: 27.2 µM
MOLT-4 leukemia
  GI50: 3.38 µM
  TGI: 80.3 µM
DU-145 prostate
  GI50: 17.2 µM
  TGI: 34 µM
NCI-H460 lung
  GI50: 16.8 µM
  TGI: 33.6 µM
A498 renal
  GI50: 12.4 µM
  TGI: 25.1 µM
T-47D breast
  GI50: 16.7 µM
  TGI: 42.2 µM
A549 NSCLC
  GI50: 14.4 µM
  TGI: 28.5 µM
SK-MEL-28 melanoma
  GI50: 15.5 µM
  TGI: 28.9 µM
ACHN renal
  GI50: 13.5 µM
  TGI: 26.3 µM
SW-620 colon
  GI50: 8.46 µM
  TGI: 21.7 µM
HS 578T breast
  GI50: 15.8 µM
  TGI: 60.5 µM
PC-3 prostate
  GI50: 13 µM
  TGI: 29.6 µM
HOP-92 NSCLC
  GI50: 15.1 µM
  TGI: 32 µM
UACC-257 melanoma
  GI50: 16.2 µM
  TGI: 30 µM
NCI-H23 lung
  GI50: 15.7 µM
  TGI: 29.5 µM
HCT-116 colon
  GI50: 11.7 µM
  TGI: 24.3 µM
M14 melanoma
  GI50: 14.1 µM
  TGI: 28.3 µM
HT29 colon
  GI50: 3.21 µM
  TGI: 10.4 µM
SK-MEL-2 melanoma
  GI50: 16.6 µM
  TGI: 30.4 µM
LOX IMVI melanoma
  GI50: 1.71 µM
  TGI: 3.24 µM
786-0 renal
  GI50: 14.8 µM
  TGI: 28.8 µM
HCT-15 colon
  GI50: 2.07 µM
  TGI: 4.54 µM
COLO 205 colon
  GI50: 16.7 µM
  TGI: 34.3 µM
UO-31 renal
  GI50: 11.4 µM
  TGI: 23.5 µM
OVCAR-4 ovarian
  GI50: 14.7 µM
  TGI: 29 µM
SF-268 CNS
  GI50: 17.7 µM
  TGI: 43.8 µM
OVCAR-3 ovarian
  GI50: 17.9 µM
  TGI: 35.5 µM
MDA-MB-231 breast
  GI50: 13.3 µM
  TGI: 26.5 µM
HOP-62 NSCLC
  GI50: 17.5 µM
  TGI: 34 µM
RXF 393 renal
  GI50: 12.8 µM
  TGI: 27 µM
TK-10 renal
  GI50: 15.8 µM
  TGI: 29.4 µM
IGROV1 ovarian
  GI50: 3.08 µM
  TGI: 11 µM
SK-OV-3 ovarian
  GI50: 15.3 µM
  TGI: 30.2 µM
SK-MEL-5 melanoma
  GI50: 16.3 µM
  TGI: 30.1 µM
CCRF-CEM leukemia
  GI50: 6.86 µM
  TGI: > 100 µM
OVCAR-8 ovarian
  GI50: 14.8 µM
  TGI: 28.4 µM
SF-539 CNS
  GI50: 14.7 µM
  TGI: 27.9 µM
MDA-MB-468 breast
  GI50: 11 µM
  TGI: 24.9 µM
CAKI-1 renal
  GI50: 11.2 µM
  TGI: 24.7 µM
K-562 leukemia
  GI50: 3.71 µM
  TGI: > 100 µM
HL-60(TB) leukemia
  GI50: 14.7 µM
  TGI: 95.1 µM
SF-295 CNS
  GI50: 13.3 µM
  TGI: 26.4 µM
NCI-H226 lung
  GI50: 15.7 µM
  TGI: 34 µM
MCF7 breast
  GI50: 2.37 µM
  TGI: 6.39 µM
OVCAR-5 ovarian
  GI50: 15 µM
  TGI: 28.4 µM
SR leukemia
  GI50: 2.52 µM
  TGI: > 100 µM
NCI-H522 lung
  GI50: 14 µM
  TGI: 27.3 µM
HCC-2998 colon
  GI50: 16.7 µM
  TGI: 30.8 µM
